Reference: PMC10797614, “MYC-Targeting Inhibitors Generated from a Stereodiversified Bicyclic Peptide Library” (Journal of the American Chemical Society, 2024)

Test: tandem ring-opening/ring-closing metathesis (ROM-RCM) of side-chain norbornene with two Glu allyl esters to bicyclic peptide; Hoveyda-Grubbs 2nd gen (M720), two portions (library procedure)
Conditions: the molecule shown is the open-chain precursor; 28-membered ring; 1,2-dichloroethane; resin; 70.0 °C

Going from C=CCOC(=O)CC[C@H](NC(=O)[C@H](CC(C)C)NC(=O)[C@H](C)NC(=O)[C@@H]1CCCN1C(=O)[C@H](CCCCNC(=O)[C@H]1C[C@H]2C=C[C@@H]1C2)NC(=O)[C@@H](NC(=O)[C@@H](NC(=O)[C@H](Cc1ccccc1)NC(=O)[C@H](CCC(=O)OCC=C)NC(=O)OCC1c2ccccc2-c2ccccc21)[C@@H](C)CC)C(C)C)C(N)=O to C=CCOC(=O)CC[C@H](NC(=O)[C@H](CC(C)C)NC(=O)[C@H](C)NC(=O)[C@@H]1CCCN1C(=O)[C@H](CCCCNC(=O)[C@@H]1C[C@H]2C=C[C@@H]1C2)NC(=O)[C@@H](NC(=O)[C@@H](NC(=O)[C@H](Cc1ccccc1)NC(=O)[C@H](CCC(=O)OCC=C)NC(=O)OCC1c2ccccc2-c2ccccc21)[C@@H](C)CC)C(C)C)C(N)=O, the ring closure, conversion by HPLC (% (semiquantitative, mass spectrometry)) falls from 47 to 14.

Compared with C=CCOC(=O)CC[C@H](NC(=O)[C@H](CC(C)C)NC(=O)[C@H](C)NC(=O)[C@H](CCCCNC(=O)[C@H]1C[C@H]2C=C[C@@H]1C2)NC(=O)[C@@H](NC(=O)[C@@H](NC(=O)[C@H](Cc1ccccc1)NC(=O)[C@H](CCC(=O)OCC=C)NC(=O)OCC1c2ccccc2-c2ccccc21)[C@@H](C)CC)C(C)C)C(N)=O, C=CCOC(=O)CC[C@H](NC(=O)[C@H](CC(C)C)NC(=O)[C@H](C)NC(=O)[C@H](CCCCNC(=O)[C@@H]1C[C@H]2C=C[C@@H]1C2)NC(=O)[C@@H](NC(=O)[C@@H](NC(=O)[C@H](Cc1ccccc1)NC(=O)[C@H](CCC(=O)OCC=C)NC(=O)OCC1c2ccccc2-c2ccccc21)[C@@H](C)CC)C(C)C)C(N)=O is lower in ring closure, conversion by HPLC (% (semiquantitative, mass spectrometry)): 65 for the first, 18 for the second.

First: C=CCOC(=O)CC[C@H](NC(=O)[C@H](CC(C)C)NC(=O)[C@@H]1CCCN1C(=O)[C@H](C)NC(=O)[C@H](CCCCNC(=O)[C@H]1C[C@H]2C=C[C@@H]1C2)NC(=O)[C@@H](NC(=O)[C@@H](NC(=O)[C@H](Cc1ccccc1)NC(=O)[C@H](CCC(=O)OCC=C)NC(=O)OCC1c2ccccc2-c2ccccc21)[C@@H](C)CC)C(C)C)C(N)=O
Second: C=CCOC(=O)CC[C@H](NC(=O)[C@H](CC(C)C)NC(=O)[C@@H]1CCCN1C(=O)[C@H](C)NC(=O)[C@H](CCCCNC(=O)[C@@H]1C[C@H]2C=C[C@@H]1C2)NC(=O)[C@@H](NC(=O)[C@@H](NC(=O)[C@H](Cc1ccccc1)NC(=O)[C@H](CCC(=O)OCC=C)NC(=O)OCC1c2ccccc2-c2ccccc21)[C@@H](C)CC)C(C)C)C(N)=O
The ring closure, conversion by HPLC (% (semiquantitative, mass spectrometry)) of the first is higher: 45 for the first, 10 for the second.

C=CCOC(=O)CC[C@H](NC(=O)[C@@H]1CCCN1C(=O)[C@H](CC(C)C)NC(=O)[C@H](C)NC(=O)[C@H](CCCCNC(=O)[C@H]1C[C@H]2C=C[C@@H]1C2)NC(=O)[C@@H](NC(=O)[C@@H](NC(=O)[C@H](Cc1ccccc1)NC(=O)[C@H](CCC(=O)OCC=C)NC(=O)OCC1c2ccccc2-c2ccccc21)[C@@H](C)CC)C(C)C)C(N)=O and C=CCOC(=O)CC[C@H](NC(=O)[C@@H]1CCCN1C(=O)[C@H](CC(C)C)NC(=O)[C@H](C)NC(=O)[C@H](CCCCNC(=O)[C@@H]1C[C@H]2C=C[C@@H]1C2)NC(=O)[C@@H](NC(=O)[C@@H](NC(=O)[C@H](Cc1ccccc1)NC(=O)[C@H](CCC(=O)OCC=C)NC(=O)OCC1c2ccccc2-c2ccccc21)[C@@H](C)CC)C(C)C)C(N)=O are the same in ring closure, conversion by HPLC (% (semiquantitative, mass spectrometry)): 2 for the first, 2 for the second.

Same assay, conditions: the molecule shown is the open-chain precursor; 31-membered ring; 1,2-dichloroethane; resin; 70.0 °C

First: C=CCOC(=O)CC[C@H](NC(=O)[C@H](CC(C)C)NC(=O)[C@H](C)NC(=O)[C@H](CCCCNC(=O)[C@@H]1C[C@H]2C=C[C@@H]1C2)NC(=O)[C@@H](NC(=O)[C@@H]1CCCN1C(=O)[C@@H](NC(=O)[C@H](Cc1ccccc1)NC(=O)[C@H](CCC(=O)OCC=C)NC(=O)OCC1c2ccccc2-c2ccccc21)[C@@H](C)CC)C(C)C)C(N)=O
Second: C=CCOC(=O)CC[C@H](NC(=O)[C@H](CC(C)C)NC(=O)[C@H](C)NC(=O)[C@H](CCCCNC(=O)[C@H]1C[C@H]2C=C[C@@H]1C2)NC(=O)[C@@H](NC(=O)[C@@H]1CCCN1C(=O)[C@@H](NC(=O)[C@H](Cc1ccccc1)NC(=O)[C@H](CCC(=O)OCC=C)NC(=O)OCC1c2ccccc2-c2ccccc21)[C@@H](C)CC)C(C)C)C(N)=O
The ring closure, conversion by HPLC (% (semiquantitative, mass spectrometry)) of the first is lower: 14 for the first, 80 for the second.

Compared with C=CCOC(=O)CC[C@H](NC(=O)[C@H](CC(C)C)NC(=O)[C@H](C)NC(=O)[C@H](CCCCNC(=O)[C@H]1C[C@H]2C=C[C@@H]1C2)NC(=O)[C@@H]1CCCN1C(=O)[C@@H](NC(=O)[C@@H](NC(=O)[C@H](Cc1ccccc1)NC(=O)[C@H](CCC(=O)OCC=C)NC(=O)OCC1c2ccccc2-c2ccccc21)[C@@H](C)CC)C(C)C)C(N)=O, C=CCOC(=O)CC[C@H](NC(=O)[C@H](CC(C)C)NC(=O)[C@H](C)NC(=O)[C@H](CCCCNC(=O)[C@@H]1C[C@H]2C=C[C@@H]1C2)NC(=O)[C@@H]1CCCN1C(=O)[C@@H](NC(=O)[C@@H](NC(=O)[C@H](Cc1ccccc1)NC(=O)[C@H](CCC(=O)OCC=C)NC(=O)OCC1c2ccccc2-c2ccccc21)[C@@H](C)CC)C(C)C)C(N)=O is lower in ring closure, conversion by HPLC (% (semiquantitative, mass spectrometry)): 34 for the first, 25 for the second.

Compared with C=CCOC(=O)CC[C@H](NC(=O)[C@H](CC(C)C)NC(=O)[C@H](C)NC(=O)[C@H](CCCCNC(=O)[C@H]1C[C@H]2C=C[C@@H]1C2)NC(=O)[C@@H](NC(=O)[C@@H](NC(=O)[C@@H]1CCCN1C(=O)[C@H](Cc1ccccc1)NC(=O)[C@H](CCC(=O)OCC=C)NC(=O)OCC1c2ccccc2-c2ccccc21)[C@@H](C)CC)C(C)C)C(N)=O, C=CCOC(=O)CC[C@H](NC(=O)[C@H](CC(C)C)NC(=O)[C@H](C)NC(=O)[C@H](CCCCNC(=O)[C@@H]1C[C@H]2C=C[C@@H]1C2)NC(=O)[C@@H](NC(=O)[C@@H](NC(=O)[C@@H]1CCCN1C(=O)[C@H](Cc1ccccc1)NC(=O)[C@H](CCC(=O)OCC=C)NC(=O)OCC1c2ccccc2-c2ccccc21)[C@@H](C)CC)C(C)C)C(N)=O is lower in ring closure, conversion by HPLC (% (semiquantitative, mass spectrometry)): 79 for the first, 74 for the second.

Compared with C=CCOC(=O)CC[C@H](NC(=O)[C@H](CC(C)C)NC(=O)[C@H](C)NC(=O)[C@H](CCCCNC(=O)[C@H]1C[C@H]2C=C[C@@H]1C2)NC(=O)[C@@H](NC(=O)[C@@H](NC(=O)[C@H](Cc1ccccc1)NC(=O)[C@@H]1CCCN1C(=O)[C@H](CCC(=O)OCC=C)NC(=O)OCC1c2ccccc2-c2ccccc21)[C@@H](C)CC)C(C)C)C(N)=O, C=CCOC(=O)CC[C@H](NC(=O)[C@H](CC(C)C)NC(=O)[C@H](C)NC(=O)[C@H](CCCCNC(=O)[C@@H]1C[C@H]2C=C[C@@H]1C2)NC(=O)[C@@H](NC(=O)[C@@H](NC(=O)[C@H](Cc1ccccc1)NC(=O)[C@@H]1CCCN1C(=O)[C@H](CCC(=O)OCC=C)NC(=O)OCC1c2ccccc2-c2ccccc21)[C@@H](C)CC)C(C)C)C(N)=O is lower in ring closure, conversion by HPLC (% (semiquantitative, mass spectrometry)): 55 for the first, 22 for the second.
